According to article PMC6886798, “Expression of myeloid Src-family kinases is associated with poor prognosis in AML and influences Flt3-ITD kinase inhibitor acquired resistance” (PLoS ONE, 2019):

Tests used:
Experiment in all cases: KINOMEscan
Format in all cases: binding
Conditions in all cases: 1.0 µM
[1] = molecular target: T1, ABL1(Y253F)-phosphorylated (Homo sapiens, UniProt P00519, Y253F)
T1 construct: purchased Eurofins/DiscoverX KINOMEscan scanMAX
Method: (§1) Kinase retention to the immobilized ligand is then measured using quantitative real-time PCR for each kinase-specific DNA barcode.

ANKK1 = molecular target: T2, ANKK1 (Homo sapiens, UniProt Q8NFD2)
T2 construct: purchased Eurofins/DiscoverX KINOMEscan scanMAX
Method: as §1

ARK5 = molecular target: T3, ARK5 (Homo sapiens, UniProt O60285)
T3 construct: purchased Eurofins/DiscoverX KINOMEscan scanMAX
T3 sequence (O60285 whole entry): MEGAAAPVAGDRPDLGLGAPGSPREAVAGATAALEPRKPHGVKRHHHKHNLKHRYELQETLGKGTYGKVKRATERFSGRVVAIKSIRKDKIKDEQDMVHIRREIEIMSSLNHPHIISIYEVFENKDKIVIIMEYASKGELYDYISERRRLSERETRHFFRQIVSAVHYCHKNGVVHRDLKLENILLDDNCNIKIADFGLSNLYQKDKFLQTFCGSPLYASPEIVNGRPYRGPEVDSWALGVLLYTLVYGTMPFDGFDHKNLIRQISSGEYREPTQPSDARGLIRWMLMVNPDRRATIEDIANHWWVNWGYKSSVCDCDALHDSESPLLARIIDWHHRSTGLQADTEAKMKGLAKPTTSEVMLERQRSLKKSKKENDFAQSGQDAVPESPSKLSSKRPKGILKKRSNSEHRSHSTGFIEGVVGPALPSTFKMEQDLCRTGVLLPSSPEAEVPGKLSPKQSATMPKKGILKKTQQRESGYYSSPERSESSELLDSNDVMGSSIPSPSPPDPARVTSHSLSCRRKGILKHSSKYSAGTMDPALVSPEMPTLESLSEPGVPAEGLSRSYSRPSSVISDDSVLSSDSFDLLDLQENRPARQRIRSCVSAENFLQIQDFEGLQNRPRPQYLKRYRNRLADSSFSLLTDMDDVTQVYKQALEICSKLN
Method: as §1

AURKA = molecular target: T4, AURKA (Homo sapiens, UniProt O14965)
T4 construct: purchased Eurofins/DiscoverX KINOMEscan scanMAX
T4 sequence (O14965 whole entry): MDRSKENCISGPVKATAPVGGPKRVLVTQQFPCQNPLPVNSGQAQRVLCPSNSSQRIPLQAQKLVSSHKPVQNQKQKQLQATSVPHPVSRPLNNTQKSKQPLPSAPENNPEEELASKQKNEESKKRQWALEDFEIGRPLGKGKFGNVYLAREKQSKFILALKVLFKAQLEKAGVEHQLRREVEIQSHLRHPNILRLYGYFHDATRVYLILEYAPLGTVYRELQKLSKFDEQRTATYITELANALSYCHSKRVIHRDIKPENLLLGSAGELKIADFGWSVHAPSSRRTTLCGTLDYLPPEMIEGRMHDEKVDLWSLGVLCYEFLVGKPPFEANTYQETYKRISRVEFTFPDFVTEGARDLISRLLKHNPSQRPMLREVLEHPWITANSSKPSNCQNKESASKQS
Method: as §1

CAMK2A = molecular target: T5, CAMK2A (Homo sapiens, UniProt Q9UQM7)
T5 construct: purchased Eurofins/DiscoverX KINOMEscan scanMAX
Method: as §1

CAMKK2 = molecular target: T6, CAMKK2 (Homo sapiens, UniProt Q96RR4)
T6 construct: purchased Eurofins/DiscoverX KINOMEscan scanMAX
Method: as §1

CDK7 = molecular target: T7, CDK7 (Homo sapiens, UniProt P50613)
T7 construct: purchased Eurofins/DiscoverX KINOMEscan scanMAX
Method: as §1

CDK9 = molecular target: T8, CDK9 (Homo sapiens, UniProt P50750)
T8 construct: purchased Eurofins/DiscoverX KINOMEscan scanMAX
Method: as §1

DAPK3 = molecular target: T9, DAPK3 (Homo sapiens, UniProt O43293)
T9 construct: purchased Eurofins/DiscoverX KINOMEscan scanMAX
Method: as §1

DCAMKL2 = molecular target: T10, DCAMKL2 (Homo sapiens, UniProt Q8N568)
T10 construct: purchased Eurofins/DiscoverX KINOMEscan scanMAX
T10 sequence (Q8N568 whole entry): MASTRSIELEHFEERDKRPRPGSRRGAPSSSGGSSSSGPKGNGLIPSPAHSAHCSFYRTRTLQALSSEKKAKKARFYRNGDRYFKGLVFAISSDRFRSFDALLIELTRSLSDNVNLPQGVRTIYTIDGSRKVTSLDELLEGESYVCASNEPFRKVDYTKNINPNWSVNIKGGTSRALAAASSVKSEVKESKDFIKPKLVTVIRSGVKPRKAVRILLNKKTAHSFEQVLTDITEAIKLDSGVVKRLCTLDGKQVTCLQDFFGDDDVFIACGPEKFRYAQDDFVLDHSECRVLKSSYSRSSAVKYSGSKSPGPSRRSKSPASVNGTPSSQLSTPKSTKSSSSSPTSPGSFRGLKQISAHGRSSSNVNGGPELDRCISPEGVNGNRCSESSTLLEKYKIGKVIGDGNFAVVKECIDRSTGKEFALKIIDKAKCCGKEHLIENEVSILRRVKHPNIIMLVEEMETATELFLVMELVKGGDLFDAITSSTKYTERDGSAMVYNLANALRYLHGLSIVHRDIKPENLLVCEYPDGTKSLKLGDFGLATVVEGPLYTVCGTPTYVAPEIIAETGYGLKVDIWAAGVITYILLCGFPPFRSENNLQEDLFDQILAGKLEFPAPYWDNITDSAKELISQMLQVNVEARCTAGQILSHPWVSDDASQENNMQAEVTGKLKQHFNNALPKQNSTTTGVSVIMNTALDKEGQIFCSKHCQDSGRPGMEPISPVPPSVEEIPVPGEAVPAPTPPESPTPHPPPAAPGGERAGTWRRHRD
Method: as §1

DDR2 = molecular target: T11, DDR2 (Homo sapiens, UniProt Q16832)
T11 construct: purchased Eurofins/DiscoverX KINOMEscan scanMAX
Method: as §1

DRAK1 = molecular target: T12, DRAK1 (Homo sapiens, UniProt Q9UEE5)
T12 construct: purchased Eurofins/DiscoverX KINOMEscan scanMAX
Method: as §1

EPHA7 = molecular target: T13, EPHA7 (Homo sapiens, UniProt Q15375)
T13 construct: purchased Eurofins/DiscoverX KINOMEscan scanMAX
Method: as §1

EPHB1 = molecular target: T14, EPHB1 (Homo sapiens, UniProt P54762)
T14 construct: purchased Eurofins/DiscoverX KINOMEscan scanMAX
Method: as §1

ERBB3 = molecular target: T15, ERBB3 (Homo sapiens, UniProt P21860)
T15 construct: purchased Eurofins/DiscoverX KINOMEscan scanMAX
Method: as §1

FES = molecular target: T16, FES (Homo sapiens, UniProt P07332)
T16 construct: purchased Eurofins/DiscoverX KINOMEscan scanMAX
Method: as §1

FGFR2 = molecular target: T17, FGFR2 (Homo sapiens, UniProt P21802)
T17 construct: purchased Eurofins/DiscoverX KINOMEscan scanMAX
Method: as §1

FLT3(D835Y) = molecular target: T18, FLT3(D835Y) (Homo sapiens, UniProt P36888, D835Y)
T18 construct: purchased Eurofins/DiscoverX KINOMEscan scanMAX
Method: as §1

GCN2(Kin.Dom.2,S808G) = molecular target: T19, GCN2(Kin.Dom.2,S808G) (Homo sapiens, UniProt Q9P2K8, S808G)
T19 construct: GCN2(Kin.Dom.2,S808G); purchased Eurofins/DiscoverX KINOMEscan scanMAX
T19 sequence (Q9P2K8 590-1001 S808G limits assumed): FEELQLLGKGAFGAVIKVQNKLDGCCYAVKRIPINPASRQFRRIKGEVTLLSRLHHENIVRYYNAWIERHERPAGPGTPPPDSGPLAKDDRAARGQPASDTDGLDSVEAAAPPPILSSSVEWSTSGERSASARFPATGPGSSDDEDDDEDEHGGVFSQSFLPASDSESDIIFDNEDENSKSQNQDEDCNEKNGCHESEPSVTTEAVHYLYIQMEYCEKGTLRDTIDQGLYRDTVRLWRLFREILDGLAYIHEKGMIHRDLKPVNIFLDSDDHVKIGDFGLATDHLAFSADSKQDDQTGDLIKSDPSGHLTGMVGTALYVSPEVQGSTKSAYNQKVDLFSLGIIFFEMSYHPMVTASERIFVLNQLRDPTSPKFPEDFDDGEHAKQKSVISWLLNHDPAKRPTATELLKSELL
Method: as §1

GSK3A = molecular target: T20, GSK3A (Homo sapiens, UniProt P49840)
T20 construct: purchased Eurofins/DiscoverX KINOMEscan scanMAX
T20 sequence (P49840 whole entry): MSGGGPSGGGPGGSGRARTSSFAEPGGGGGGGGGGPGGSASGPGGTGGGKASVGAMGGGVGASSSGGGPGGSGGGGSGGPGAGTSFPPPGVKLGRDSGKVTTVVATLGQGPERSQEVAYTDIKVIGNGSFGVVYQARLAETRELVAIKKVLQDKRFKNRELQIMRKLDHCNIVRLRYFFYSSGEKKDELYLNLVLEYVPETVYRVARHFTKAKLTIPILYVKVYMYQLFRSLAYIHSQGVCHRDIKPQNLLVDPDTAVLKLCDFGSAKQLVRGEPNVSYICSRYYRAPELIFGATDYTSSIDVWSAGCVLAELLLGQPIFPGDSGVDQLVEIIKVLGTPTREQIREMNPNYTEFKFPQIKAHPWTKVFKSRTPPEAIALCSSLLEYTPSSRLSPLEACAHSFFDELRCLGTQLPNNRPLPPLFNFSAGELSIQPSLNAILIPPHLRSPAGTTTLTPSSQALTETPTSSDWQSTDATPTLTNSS
Method: as §1

HIPK4 = molecular target: T21, HIPK4 (Homo sapiens, UniProt Q8NE63)
T21 construct: purchased Eurofins/DiscoverX KINOMEscan scanMAX
Method: as §1

ITK = molecular target: T22, ITK (Homo sapiens, UniProt Q08881)
T22 construct: purchased Eurofins/DiscoverX KINOMEscan scanMAX
T22 sequence (Q08881 whole entry): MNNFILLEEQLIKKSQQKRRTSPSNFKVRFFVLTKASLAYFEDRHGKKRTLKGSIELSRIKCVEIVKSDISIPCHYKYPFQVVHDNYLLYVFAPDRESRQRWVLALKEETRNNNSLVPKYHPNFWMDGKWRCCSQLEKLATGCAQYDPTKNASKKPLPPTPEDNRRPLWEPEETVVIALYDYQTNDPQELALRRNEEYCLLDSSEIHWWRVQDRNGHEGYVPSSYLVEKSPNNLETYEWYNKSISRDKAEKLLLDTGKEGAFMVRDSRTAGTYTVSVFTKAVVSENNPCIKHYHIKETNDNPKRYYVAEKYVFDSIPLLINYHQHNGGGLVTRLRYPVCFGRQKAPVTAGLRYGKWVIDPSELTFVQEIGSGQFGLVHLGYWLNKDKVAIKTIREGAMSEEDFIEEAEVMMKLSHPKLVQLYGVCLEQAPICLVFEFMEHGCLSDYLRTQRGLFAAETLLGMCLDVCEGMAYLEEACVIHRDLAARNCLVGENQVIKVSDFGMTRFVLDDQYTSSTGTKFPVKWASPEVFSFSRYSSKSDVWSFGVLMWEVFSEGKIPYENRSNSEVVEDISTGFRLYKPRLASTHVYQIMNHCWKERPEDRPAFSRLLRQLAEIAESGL
Method: as §1

MEK4 = molecular target: T23, MEK4 (Homo sapiens, UniProt P45985)
T23 construct: purchased Eurofins/DiscoverX KINOMEscan scanMAX
Method: as §1

MEK5 = molecular target: T24, MEK5 (Homo sapiens, UniProt Q13163)
T24 construct: purchased Eurofins/DiscoverX KINOMEscan scanMAX
T24 sequence (Q13163 whole entry): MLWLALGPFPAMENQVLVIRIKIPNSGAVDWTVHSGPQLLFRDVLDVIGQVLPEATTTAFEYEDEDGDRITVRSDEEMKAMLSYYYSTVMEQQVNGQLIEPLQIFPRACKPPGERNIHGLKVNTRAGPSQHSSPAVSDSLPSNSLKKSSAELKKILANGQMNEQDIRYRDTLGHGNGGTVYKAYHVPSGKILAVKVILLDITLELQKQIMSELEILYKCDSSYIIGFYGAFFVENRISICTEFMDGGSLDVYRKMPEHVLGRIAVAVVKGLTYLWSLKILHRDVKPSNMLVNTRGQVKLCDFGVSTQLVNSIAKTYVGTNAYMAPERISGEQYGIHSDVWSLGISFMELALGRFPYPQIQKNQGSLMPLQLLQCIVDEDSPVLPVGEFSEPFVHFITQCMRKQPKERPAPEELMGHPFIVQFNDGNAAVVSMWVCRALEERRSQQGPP
Method: as §1

MST4 = molecular target: T25, MST4 (Homo sapiens, UniProt Q9P289)
T25 construct: purchased Eurofins/DiscoverX KINOMEscan scanMAX
Method: as §1

PAK1 = molecular target: T26, PAK1 (Homo sapiens, UniProt Q13153)
T26 construct: purchased Eurofins/DiscoverX KINOMEscan scanMAX
Method: as §1

PFCDPK1(P.falciparum) = molecular target: T27, PFCDPK1(P.falciparum) (Plasmodium falciparum, UniProt P62344)
T27 construct: purchased Eurofins/DiscoverX KINOMEscan scanMAX
Method: as §1

PIM2 = molecular target: T28, PIM2 (Homo sapiens, UniProt Q9P1W9)
T28 construct: purchased Eurofins/DiscoverX KINOMEscan scanMAX
Method: as §1

PKN2 = molecular target: T29, PKN2 (Homo sapiens, UniProt Q16513)
T29 construct: purchased Eurofins/DiscoverX KINOMEscan scanMAX
Method: as §1

PRKCE = molecular target: T30, PRKCE (Homo sapiens, UniProt Q02156)
T30 construct: purchased Eurofins/DiscoverX KINOMEscan scanMAX
Method: as §1

PRKCI = molecular target: T31, PRKCI (Homo sapiens, UniProt P41743)
T31 construct: purchased Eurofins/DiscoverX KINOMEscan scanMAX
Method: as §1

PRKX = molecular target: T32, PRKX (Homo sapiens, UniProt P51817)
T32 construct: purchased Eurofins/DiscoverX KINOMEscan scanMAX
Method: as §1

RIPK2 = molecular target: T33, RIPK2 (Homo sapiens, UniProt O43353)
T33 construct: purchased Eurofins/DiscoverX KINOMEscan scanMAX
T33 sequence (O43353 whole entry): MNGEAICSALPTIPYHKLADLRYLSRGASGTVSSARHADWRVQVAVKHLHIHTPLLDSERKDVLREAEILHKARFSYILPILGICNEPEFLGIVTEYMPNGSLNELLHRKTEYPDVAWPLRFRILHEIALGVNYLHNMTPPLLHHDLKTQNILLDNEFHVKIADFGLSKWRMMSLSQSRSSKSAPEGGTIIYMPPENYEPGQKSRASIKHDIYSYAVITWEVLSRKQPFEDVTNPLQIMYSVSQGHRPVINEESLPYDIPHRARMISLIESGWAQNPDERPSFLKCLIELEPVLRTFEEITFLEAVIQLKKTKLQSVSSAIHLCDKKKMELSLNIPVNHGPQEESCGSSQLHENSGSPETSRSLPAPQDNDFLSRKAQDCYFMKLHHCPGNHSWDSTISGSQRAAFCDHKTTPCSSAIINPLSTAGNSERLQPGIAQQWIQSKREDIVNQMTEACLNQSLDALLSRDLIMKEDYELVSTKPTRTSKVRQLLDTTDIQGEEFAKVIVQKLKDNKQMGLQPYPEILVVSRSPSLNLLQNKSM
Method: as §1

RIPK4 = molecular target: T34, RIPK4 (Homo sapiens, UniProt P57078)
T34 construct: purchased Eurofins/DiscoverX KINOMEscan scanMAX
Method: as §1

SRC = molecular target: T35, SRC (Homo sapiens, UniProt P12931)
T35 construct: purchased Eurofins/DiscoverX KINOMEscan scanMAX
Method: as §1

SYK = molecular target: T36, SYK (Homo sapiens, UniProt P43405)
T36 construct: purchased Eurofins/DiscoverX KINOMEscan scanMAX
Method: as §1

TBK1 = molecular target: T37, TBK1 (Homo sapiens, UniProt Q9UHD2)
T37 construct: purchased Eurofins/DiscoverX KINOMEscan scanMAX
Method: as §1

TGFBR1 = molecular target: T38, TGFBR1 (Homo sapiens, UniProt P36897)
T38 construct: purchased Eurofins/DiscoverX KINOMEscan scanMAX
Method: as §1

TSSK1B = molecular target: T39, TSSK1B (Homo sapiens, UniProt Q9BXA7)
T39 construct: DNA tag (qPCR barcode); purchased Eurofins/DiscoverX KINOMEscan scanMAX
T39 sequence (Q9BXA7 whole entry): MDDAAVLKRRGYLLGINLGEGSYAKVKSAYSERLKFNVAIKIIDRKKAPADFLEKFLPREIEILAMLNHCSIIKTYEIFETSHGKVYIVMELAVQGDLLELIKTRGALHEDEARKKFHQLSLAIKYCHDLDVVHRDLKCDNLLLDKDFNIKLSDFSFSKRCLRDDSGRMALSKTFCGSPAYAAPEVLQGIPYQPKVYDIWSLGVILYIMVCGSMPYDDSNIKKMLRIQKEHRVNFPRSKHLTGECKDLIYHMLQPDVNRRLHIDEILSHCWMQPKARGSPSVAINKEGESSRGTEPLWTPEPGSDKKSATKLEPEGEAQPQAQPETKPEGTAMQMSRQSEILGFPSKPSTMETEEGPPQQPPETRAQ
Method: as §1

ULK1 = molecular target: T40, ULK1 (Homo sapiens, UniProt O75385)
T40 construct: DNA tag (qPCR barcode); purchased Eurofins/DiscoverX KINOMEscan scanMAX
Method: as §1

YSK4 = molecular target: T41, YSK4 (Homo sapiens, UniProt Q56UN5)
T41 construct: purchased Eurofins/DiscoverX (KINOMEscan scanMAX service)
Method: as §1

ZAK = molecular target: T42, ZAK (Homo sapiens, UniProt Q9NYL2)
T42 construct: purchased Eurofins/DiscoverX (KINOMEscan scanMAX service)
Method: as §1

## CN1CCN(C2CCC(n3cc(-c4ccc(Oc5ccccc5)cc4)c4c(N)ncnc43)CC2)CC1 (stereo not drawn) [A-419259]
[1]
  % Control: 0.35%
ANKK1
  % Control: 73%
ARK5
  % Control: 90%
AURKA
  % Control: 36%
CAMK2A
  % Control: 88%
CAMKK2
  % Control: 100%
CDK7
  % Control: 28%
CDK9
  % Control: 65%
DAPK3
  % Control: 100%
DCAMKL2
  % Control: 87%
DDR2
  % Control: 59%
DRAK1
  % Control: 65%
EPHA7
  % Control: 100%
EPHB1
  % Control: 96%
ERBB3
  % Control: 0.2%
FES
  % Control: 100%
FGFR2
  % Control: 39%
FLT3(D835Y)
  % Control: 7.6%
GCN2(Kin.Dom.2,S808G)
  % Control: 79%
GSK3A
  % Control: 100%
HIPK4
  % Control: 63%
ITK
  % Control: 14%
MEK4
  % Control: 89%
MEK5
  % Control: 0.25%
MST4
  % Control: 4.9%
PAK1
  % Control: 55%
PFCDPK1(P.falciparum)
  % Control: 0%
PIM2
  % Control: 100%
PKN2
  % Control: 100%
PRKCE
  % Control: 88%
PRKCI
  % Control: 26%
PRKX
  % Control: 100%
RIPK2
  % Control: 3.6%
RIPK4
  % Control: 84%
SRC
  % Control: 0.1%
SYK
  % Control: 100%
TBK1
  % Control: 100%
TGFBR1
  % Control: 60%
TSSK1B
  % Control: 100%
ULK1
  % Control: 99%
YSK4
  % Control: 58%
ZAK
  % Control: 13%
